Measured values as given in ChEMBL document CHEMBL4619763 (J Nat Prod, 2020).
The source made the active and inactive calls. The rule behind the calls is not given here.

Assays:
Rattus norvegicus [1] = assay: Diuretic activity in normotensive Wistar rat assessed as urine pH at 1 mg/kg, po administered via gavage after 8 hrs (reference value: 6.14 to 6.21); format: functional
Rattus norvegicus [2] = assay: Diuretic activity in normotensive Wistar rat assessed as urine pH at 1 mg/kg, ip after 8 hrs (reference value: 6.05 +/- 0.22); format: functional
Rattus norvegicus [3] = assay: Diuretic activity in normotensive Wistar rat assessed as urine conductivity at 0.01 mg/kg, po administered via gavage after 8 hrs (reference value: 19.54 +/- 0.98 mS/cm); format: functional
Rattus norvegicus [4] = assay: Diuretic activity in normotensive Wistar rat assessed as urinary sodium excretion at 0.01 mg/kg, po administered via gavage after 8 hrs (reference value: 61.82 to 80.81 mmol/L); format: functional
Rattus norvegicus [5] = assay: Diuretic activity in normotensive Wistar rat assessed as urinary sodium excretion at 0.1 mg/kg, po administered via gavage after 8 hrs (reference value: 61.82 to 80.81 mmol/L); format: functional
Rattus norvegicus [6] = assay: Diuretic activity in normotensive Wistar rat assessed as urinary sodium excretion at 1 mg/kg, po administered via gavage after 8 hrs (reference value: 61.82 to 80.81 mmol/L); format: functional
Rattus norvegicus [7] = assay: Diuretic activity in normotensive Wistar rat assessed as urinary sodium excretion at 0.1 mg/kg, ip after 8 hrs (reference value: 81.56 +/- 13.10 mmol/L); format: functional
Rattus norvegicus [8] = assay: Diuretic activity in normotensive Wistar rat assessed as urinary potassium excretion at 0.01 mg/kg, po administered via gavage after 8 hrs (reference value: 22.39 to 24.21 mmol/L); format: ADME, organism-based; conditions: in vivo
Rattus norvegicus [9] = assay: Diuretic activity in normotensive Wistar rat assessed as urinary potassium excretion at 1 mg/kg, po administered via gavage after 8 hrs (reference value: 22.39 to 24.21 mmol/L); format: ADME, organism-based; conditions: in vivo
Rattus norvegicus [10] = assay: Diuretic activity in normotensive Wistar rat assessed as urinary potassium excretion at 1 mg/kg, ip […] after 8 hrs (reference value: 22.33 +/- 2.81 mmol/L); format: ADME, organism-based; conditions: in vivo
Rattus norvegicus [11] = assay: Diuretic activity in normotensive Wistar rat assessed as urinary chloride excretion at 0.01 mg/kg, po administered via gavage after 8 hrs (reference value: 135.10 to 143.70 mmol/L); format: functional
Rattus norvegicus [12] = assay: Diuretic activity in normotensive Wistar rat assessed as urinary chloride excretion at 0.1 mg/kg, po administered via gavage after 8 hrs (reference value: 135.10 to 143.70 mmol/L); format: functional
Rattus norvegicus [13] = assay: Diuretic activity in normotensive Wistar rat assessed as urinary chloride excretion at 0.1 mg/kg, ip […] after 8 hrs (reference value: 103.30 +/- 10.25 mmol/L); format: functional
Rattus norvegicus [14] = assay: Diuretic activity in normotensive Wistar rat assessed as urinary calcium excretion at 0.01 mg/kg, […] administered via gavage after 8 hrs (reference value: 5.28 +/- 0.09 mg/dl); format: functional
Rattus norvegicus [15] = assay: Diuretic activity in normotensive Wistar rat assessed as urine pH at 0.1 mg/kg, po administered via gavage after 8 hrs in presence of hydrochlorothiazide (reference value: 6.14 to 6.21); format: functional
Rattus norvegicus [16] = assay: Diuretic activity in normotensive Wistar rat assessed as urine conductivity at 0.1 mg/kg, po administered via gavage after 8 hrs in presence of hydrochlorothiazide (reference value: 19.54 +/- 0.98 mS/cm); format: functional
Rattus norvegicus [17] = assay: Diuretic activity in normotensive Wistar rat assessed as urine conductivity at 0.1 mg/kg, po administered via gavage after 8 hrs in presence of atropine (reference value: 19.54 +/- 0.98 mS/cm); format: functional
Rattus norvegicus [18] = assay: Diuretic activity in normotensive Wistar rat assessed as urinary sodium excretion at 0.1 mg/kg, po administered via gavage after 8 hrs in presence of amiloride (reference value: 61.82 to 80.81 mmol/L); format: functional
Rattus norvegicus [19] = assay: Diuretic activity in normotensive Wistar rat assessed as urinary sodium excretion at 0.1 mg/kg, po administered via gavage after 8 hrs in presence of indomethacin (reference value: 61.82 to 80.81 mmol/L); format: functional
Rattus norvegicus [20] = assay: Diuretic activity in normotensive Wistar rat assessed as urinary chloride excretion at 0.1 mg/kg, po administered via gavage after 8 hrs in presence of indomethacin (reference value: 135.10 to 143.70 mmol/L); format: functional
Rattus norvegicus [21] = assay: Diuretic activity in normotensive Wistar rat assessed as urinary chloride excretion at 0.1 mg/kg, po administered via gavage after 8 hrs in presence of L-NAME (reference value: 135.10 to 143.70 mmol/L); format: functional
Rattus norvegicus [22] = assay: Diuretic activity in normotensive Wistar rat assessed as urinary calcium excretion at 0.1 mg/kg, po administered via gavage after 8 hrs in presence of hydrochlorothiazide (reference value: 5.93 to 6.87 mg/dl); format: functional
Rattus norvegicus [23] = assay: Diuretic activity in spontaneous hypertensive Wistar rat assessed as increase in urinary chloride excretion at 0.1 mg/kg, po administered via gavage for 7 days; format: functional, organism-based
Rattus norvegicus [24] = assay: Diuretic activity in normotensive Wistar rat assessed as effect on urinary potassium excretion at 0.1 mg/kg, po administered via gavage for 7 days; format: ADME, organism-based; conditions: in vivo, 168 h
Rattus norvegicus [25] = assay: Diuretic activity in spontaneous hypertensive Wistar rat assessed as effect on urinary potassium excretion at 0.1 mg/kg, po administered via gavage for 7 days; format: ADME, organism-based; conditions: in vivo, 168 h
[26] = Toxicity in spontaneous hypertensive Wistar rat assessed as changes in plasma sodium level at 0.1 mg/kg, po administered for 7 days; format: organism-based; conditions: in vivo, 168 h
[27] = Toxicity in normotensive Wistar rat assessed as changes in plasma potassium level at 0.1 mg/kg, po administered for 7 days; format: organism-based; conditions: in vivo, 168 h
[28] = Toxicity in spontaneous hypertensive Wistar rat assessed as changes in plasma potassium level at 0.1 mg/kg, po administered for 7 days; format: organism-based; conditions: in vivo, 168 h
[29] = Toxicity in normotensive Wistar rat assessed as changes in plasma AST level at 0.1 mg/kg, po administered for 7 days; format: organism-based; conditions: in vivo, 168 h
[30] = Toxicity in spontaneous hypertensive Wistar rat assessed as changes in plasma AST level at 0.1 mg/kg, po administered for 7 days; format: organism-based; conditions: in vivo, 168 h
[31] = Toxicity in normotensive Wistar rat assessed as changes in plasma uric acid level at 0.1 mg/kg, po administered for 7 days; format: organism-based; conditions: in vivo, 168 h
[32] = Toxicity in spontaneous hypertensive Wistar rat assessed as changes in plasma uric acid level at 0.1 mg/kg, po administered for 7 days; format: organism-based; conditions: in vivo, 168 h
Rattus norvegicus [33] = assay: Renal protective activity in spontaneous hypertensive Wistar rat assessed as reduction in hypertension-induced glomerular size at 0.1 mg/kg, po administered via gavage for 7 days by hematoxylin and eosin staining based microscopic analysis; format: functional, organism-based
Rattus norvegicus [34] = assay: Anti-urolithic activity in normotensive Wistar rats assessed as reduction in CaOx crystal formation in cumulative urine at 0.1 mg/kg, po administered via gavage in presence of sodium oxalate by Neubauer counting chamber method relative to control; format: functional; set-up: scale not given: the % may be the effect or the level left
[35] = Anti-urolithic activity in synthetic urine assessed as reduction in CaOx crystal formation at 0.1 mg/mL in presence of sodium oxalate after 60 mins by Neubauer counting chamber method relative to control; format: functional; set-up: scale not given: the % may be the effect or the level left
[36] = Anti-urolithic activity in synthetic urine assessed as decrease in absorbance at 0.1 mg/mL after 30 mins relative to control; format: functional; set-up: scale not given: the % may be the effect or the level left

Activity (Rattus norvegicus [8]): 17.98 mmol/L
Activity (Rattus norvegicus [9]): 22.5 mmol/L
Activity (Rattus norvegicus [10]): 14.41 mmol/L
SMILES: C[C@@H]1O[C@@H](Oc2c(-c3ccc(O)cc3)oc3cc(O)cc(O)c3c2=O)[C@H](O)[C@H](O)[C@H]1O [AFZELIN]
pH (Rattus norvegicus [1]): 6.29
pH (Rattus norvegicus [2]): 5.91
Activity (Rattus norvegicus [3]): 22.17 mS/cm
Activity (Rattus norvegicus [4]): 61.35 mmol/L
Activity (Rattus norvegicus [5]): 53.09 to 56.99 mmol/L
Activity (Rattus norvegicus [6]): 74.67 mmol/L
Activity (Rattus norvegicus [7]): 40.93 mmol/L
Activity (Rattus norvegicus [11]): 113.3 mmol/L
Activity (Rattus norvegicus [12]): 186.6 to 231.3 mmol/L
Activity (Rattus norvegicus [13]): 78.12 mmol/L
Activity (Rattus norvegicus [14]): 5.6 mg/dL
pH (Rattus norvegicus [15]): 6.42
Activity (Rattus norvegicus [16]): 19.83 mS/cm
Activity (Rattus norvegicus [17]): 19.09 mS/cm
Activity (Rattus norvegicus [18]): 79.24 mmol/L
Activity (Rattus norvegicus [19]): 81.55 mmol/L
Activity (Rattus norvegicus [20]): 284.5 mmol/L
Activity (Rattus norvegicus [21]): 336.1 mmol/L
Activity (Rattus norvegicus [22]): 4.54 mg/dL
Activity (Rattus norvegicus [23]): Active
Activity (Rattus norvegicus [24]): Non-Toxic
Activity (Rattus norvegicus [25]): Non-Toxic
Activity [26]: Non-Toxic
Activity [27]: Non-Toxic
Activity [28]: Non-Toxic
Activity [29]: Non-Toxic
Activity [30]: Non-Toxic
Activity [31]: Non-Toxic
Activity [32]: Non-Toxic
Activity (Rattus norvegicus [33]): Active
Activity (Rattus norvegicus [34]): 41.3%
Activity [35]: 48.88%
Activity [36]: 21.54%
